These results are taken from paper PMC8271706, “Structural Characterization and Assessment of Anti-Inflammatory and Anti-Tyrosinase Activities of Polyphenols from Melastoma normale” (Molecules, 2021).

A word on the IC50: it is the concentration at which inhibition is half-maximal.

The test system of experiment [1] is LPS-stimulated RAW 264.7 cells. As to the kind of experiment: NO production by LPS-stimulated RAW 264.7 cells (Griess). The format is cell-based. As to conditions: Mus musculus, RAW264.7, read-out: IC50 for the inhibition of NO production. The protocol:
Four new compounds 1–4 were tested for potential anti-inflammatory activity by measuring the inhibition of the nitric oxide (NO) production. […] The IC50 values for the inhibition of NO production by compounds 1–4 are all > 50 μM. […] From the experimental results and literature data, the flavonoids in the title plant have better anti-inflammatory activity than ellagitannins, it may be the active ingredient corresponding to the anti-inflammatory effect of this plant.
The RAW 264.7 cells were cultivated in DMEM supplemented with 10% FBS at 37 °C in a humidified atmosphere of 5% CO2 for 24 h. Cells in 24-well plate (5 × 10^4 cells/well) were treated with 200 ng/mL LPS and the test compounds. After 22 h, the media were collected, and the level of nitrite was measured using the Griess Reagent System (Promega, Madison, WI, USA).
Background: Griess reagent forms a coloured azo dye with nitrite.

The subject of experiment [2] is mushroom tyrosinase. As to the kind of experiment: Anti-tyrosinase activity, L-DOPA as substrate. The format is biochemical. As to conditions: for IC50: IC50 ± SD, pH 6.8, read-out: Tyrosinase inhibitory activity IC50. How it is done:
All compounds were investigated for potential tyrosinase inhibitory activity.
The anti-tyrosinase activities of the isolates were investigated according to the procedure described by Aoki et al. with slight modifications. […] Solution of L-DOPA at 5.0 mM, mushroom tyrosinase at 100 U/mL, as well as samples at different concentrations were prepared in phosphate buffer (pH 6.8). 20 µL of the sample solution and 10 µL of mushroom tyrosinase solution were mixed and pre-incubated at 37 °C for 10 min, then 40 µL of L-DOPA solution was added and incubated at 37 °C for 5 min. The absorbance was measured at 475 nm using the Spark 10M multimode microplate reader (Tecan Trading AG, Zurich, Switzerland). All assays were repeated three times and each time in triplicate. The percent inhibition of tyrosinase activity was calculated using the following formula:Tyrosinase inhibition (%) = [1 − (T − T0)/(C − C0)] × 100 where T represents the absorbance with sample and tyrosinase; T0 represents the absorbance with sample but no tyrosinase; C represents the absorbance with tyrosinase but no sample; C0 represents the absorbance without tyrosinase and sample.

For experiment [3] the following is noted: cited from earlier work.

Consider `CCOC(=O)C1(O)C(=O)C2=C3C(=O)OC(C2OCC)C2OC(=O)c4c(c(O)c(O)c(O)c4C31)-c1c(cc(O)c(O)c1O)C(=O)OC1COC(=O)c3cc(O)c(O)c(O)c3-c3c(cc(O)c(O)c3O)C(=O)OC12` (stereo not drawn) [Compound 1, Whiskey tannin C], for which, in experiment [1], the IC50 is > 50 µM. For the same molecule, in experiment [2], the “tyrosinase inhibitory activity (in words)” value is given as “weak” and the IC50 turned out to be 426 ± 11.3 µM.
Take `COc1c(O)cc(C(=O)O[C@@H]2O[C@H](COC(=O)c3cc(O)c(O)c(O)c3)[C@@H](O)[C@@H]3OC(=O)c4cc(O)c(O)c(O)c4-c4c(cc(O)c(O)c4O)C(=O)O[C@@H]23)cc1O` [Compound 2, 1-O-(4-methoxygalloyl)-6-O-galloyl-2,3-O-(S)-hexahydroxydiphenoyl-β-D-glucose]: the IC50 is > 50 µM in experiment [1] and 241 ± 6.23 µM in experiment [2].
For `COc1cc(C(=O)OC[C@H]2O[C@@H](OC(=O)c3cc(O)c(O)c(O)c3)[C@@H]3OC(=O)c4cc(O)c(O)c(O)c4-c4c(cc(O)c(O)c4O)C(=O)O[C@H]3[C@@H]2O)cc(O)c1O` [Compound 3, 1-O-galloyl-6-O-(3-methoxygalloyl)-2,3-O-(S)-hexahydroxydiphenoyl-β-D-glucose] the same measures were > 50 µM and 154 ± 3.63 µM.
Consider `COc1cc(C(=O)OC[C@H]2O[C@@H](OC(=O)c3cc(O)c(O)c(O)c3)[C@@H]3OC(=O)c4cc(O)c(O)c(O)c4-c4c(cc(O)c(O)c4O)C(=O)O[C@H]3[C@@H]2O)ccc1O` [Compound 4, 1-O-galloyl-6-O-vanilloyl-2,3-O-(S)-hexahydroxydiphenoyl-β-D-glucose], for which the IC50 in experiment [1] was > 50 µM; in experiment [2], 125 ± 3.12 µM.
For the molecule `O=c1c(O)c(-c2ccc(O)cc2)oc2cc(O)cc(O)c12` [Compound 7, kaempferol], the “anti-inflammatory activity (in words)” value in experiment [3] is reported as “have anti-inflammatory activity”. The IC50 in experiment [2] came out at 1900 ± 38.2 µM.
Consider `C[C@@H]1O[C@@H](Oc2c(-c3ccc(O)cc3)oc3cc(O)cc(O)c3c2=O)[C@H](O)[C@H](O)[C@H]1O` [Compound 8, kaempferol-3-rhamnoside], for which the “anti-inflammatory activity (in words)” value in experiment [3] is recorded as “have no anti-inflammatory activity”. In experiment [2], the “tyrosinase inhibitory activity (in words)” value was “no significant” and the IC50 is > 2000 µM.
As to `O=c1c(O)c(-c2ccc(O)c(O)c2)oc2cc(O)cc(O)c12` [Compound 10, quercetin], in experiment [3], the “anti-inflammatory activity (in words)” value is given as “have anti-inflammatory activity”. Moreover, the “tyrosinase inhibitory activity (in words)” value in experiment [2] is given as “significant”.
With `C[C@@H]1O[C@@H](Oc2c(-c3ccc(O)c(O)c3)oc3cc(O)cc(O)c3c2=O)[C@H](O)[C@H](O)[C@H]1O` [Compound 11, quercetin-3-O-α-L-rhamnoside], the “anti-inflammatory activity (in words)” value in experiment [3] was “have no anti-inflammatory activity”. Moreover, in experiment [2], the IC50 was 98.2 ± 2.31 µM.
For `C[C@@H]1O[C@@H](Oc2c(-c3cc(O)c(O)c(O)c3)oc3cc(O)cc(O)c3c2=O)[C@H](O)[C@H](O)[C@H]1O` [Compound 12, myricetin-3-O-α-L-rhamnopyranoside], the “anti-inflammatory activity (in words)” value in experiment [3] was “have anti-inflammatory activity”. Further, in experiment [2], the “tyrosinase inhibitory activity (in words)” value is listed as “no significant” and the IC50 amounted to 905 ± 20.4 µM.
